How the values were obtained:
[1] = biological target: Tyrosine-protein kinase JAK2 (Homo sapiens, UniProt O60674)
Description: Inhibition of human JAK2 kinase domain using biotin-Lyn-substrate-2 as substrate incubated for 1 hr by ELISA

[2] = biological target: T1, Tyrosine-protein kinase JAK3 (Homo sapiens, UniProt P52333)
T1 sequence (P52333 whole entry): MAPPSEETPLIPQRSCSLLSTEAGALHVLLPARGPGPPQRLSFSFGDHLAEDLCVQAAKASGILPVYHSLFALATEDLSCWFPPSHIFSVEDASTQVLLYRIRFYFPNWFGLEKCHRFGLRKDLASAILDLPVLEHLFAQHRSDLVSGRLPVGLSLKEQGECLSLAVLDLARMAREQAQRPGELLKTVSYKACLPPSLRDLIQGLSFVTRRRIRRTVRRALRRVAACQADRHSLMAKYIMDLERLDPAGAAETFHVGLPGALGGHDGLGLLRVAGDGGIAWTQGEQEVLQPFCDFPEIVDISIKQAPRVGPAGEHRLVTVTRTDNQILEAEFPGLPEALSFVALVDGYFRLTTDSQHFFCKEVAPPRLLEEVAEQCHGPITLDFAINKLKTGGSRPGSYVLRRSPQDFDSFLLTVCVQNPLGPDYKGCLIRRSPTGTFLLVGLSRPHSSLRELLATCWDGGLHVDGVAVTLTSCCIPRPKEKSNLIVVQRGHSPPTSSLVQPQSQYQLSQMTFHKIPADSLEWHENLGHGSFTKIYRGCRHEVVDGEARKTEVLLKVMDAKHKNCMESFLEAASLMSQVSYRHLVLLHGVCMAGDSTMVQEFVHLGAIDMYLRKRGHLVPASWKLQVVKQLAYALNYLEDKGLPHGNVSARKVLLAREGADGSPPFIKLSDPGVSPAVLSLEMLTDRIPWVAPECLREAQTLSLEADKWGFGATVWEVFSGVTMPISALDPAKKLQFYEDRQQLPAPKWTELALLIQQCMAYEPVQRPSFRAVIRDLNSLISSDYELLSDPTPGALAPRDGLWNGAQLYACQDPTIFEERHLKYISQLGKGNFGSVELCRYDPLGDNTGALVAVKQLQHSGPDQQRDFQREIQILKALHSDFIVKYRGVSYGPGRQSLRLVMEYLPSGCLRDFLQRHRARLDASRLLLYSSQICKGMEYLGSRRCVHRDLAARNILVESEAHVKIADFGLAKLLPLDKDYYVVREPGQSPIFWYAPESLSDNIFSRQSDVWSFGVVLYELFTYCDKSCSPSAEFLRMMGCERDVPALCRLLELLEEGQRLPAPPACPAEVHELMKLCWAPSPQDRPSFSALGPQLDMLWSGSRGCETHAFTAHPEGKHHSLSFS
Description: Inhibition of human JAK3 kinase domain using biotin-Lyn-substrate-2 as substrate incubated for 1 hr by ELISA

[3] = biological target: Tyrosine-protein kinase JAK1 (Homo sapiens, UniProt P23458)
Description: Inhibition of human JAK1 kinase domain using biotin-Lyn-substrate-2 as substrate incubated for 1 hr by ELISA

in vitro [4] = details: Sprague-Dawley, rat, liver microsomes, CLH
CYP3A4 = CYP3A4 (Homo sapiens, UniProt P08684); test: in vitro; details: liver microsomes, probe midazolam, TDI
in vitro [5] = details: PAMPA, pH 6.5, permeability
Description: Permeability of the compound in pH 6.5 incubated for 2 hrs by PAMPA based HPLC analysis

Homo sapiens = organism: Homo sapiens; test: Selectivity index, ratio of IC50 for human JAK3 to IC50 for human JAK2
[6] = biological target: Tyrosine-protein kinase Lck (Homo sapiens) (UniProt P06239); test: Inhibition of LCK (unknown origin) at 1000 nM relative to control
[7] = biological target: Proto-oncogene tyrosine-protein kinase Src (Homo sapiens, UniProt P12931); test: Inhibition of SRC (unknown origin) at 1000 nM relative to control
[8] = biological target: High affinity nerve growth factor receptor (Homo sapiens, UniProt P04629); test: Inhibition of TRKA (unknown origin) at 1000 nM relative to control
[9] = biological target: RAC-alpha serine/threonine-protein kinase (Homo sapiens, UniProt P31749); test: Inhibition of AKT1 (unknown origin) at 1000 nM relative to control
[10] = biological target: Aurora kinase C (Homo sapiens) (UniProt Q9UQB9); test: Inhibition of AURC (unknown origin) at 1000 nM relative to control
[11] = biological target: Calcium/calmodulin-dependent protein kinase type II subunit alpha (Homo sapiens, UniProt Q9UQM7); test: Inhibition of CAMK2alpha (unknown origin) at 1000 nM relative to control
[12] = biological target: Cyclin-dependent kinase 2 (Homo sapiens, UniProt P24941); test: Inhibition of CDK2 (unknown origin) at 1000 nM relative to control
[13] = biological target: Serine/threonine-protein kinase Chk1 (Homo sapiens) (UniProt O14757); test: Inhibition of CHK1 (unknown origin) at 1000 nM relative to control
[14] = biological target: Glycogen synthase kinase-3 beta (Homo sapiens, UniProt P49841); test: Inhibition of GSK3beta (unknown origin) at 1000 nM relative to control
[15] = biological target: Mitogen-activated protein kinase 8 (Homo sapiens, UniProt P45983); test: Inhibition of JNK1 (unknown origin) at 1000 nM relative to control
[16] = biological target: Dual specificity mitogen-activated protein kinase kinase 1 (Homo sapiens, UniProt Q02750); test: Inhibition of MAP2K1 (unknown origin) at 1000 nM relative to control
[17] = biological target: Ribosomal protein S6 kinase beta-1 (Homo sapiens, UniProt P23443); test: Inhibition of p70S6K (unknown origin) at 1000 nM relative to control
[18] = biological target: Protein kinase C alpha type (Homo sapiens) (UniProt P17252); test: Inhibition of PKCalpha (unknown origin) at 1000 nM relative to control
[19] = biological target: Rho-associated protein kinase 1 (Homo sapiens) (UniProt Q13464); test: Inhibition of ROCK1 (unknown origin) at 1000 nM relative to control
[20] = Clearance in Sprague-Dawley rat at 1 mg/kg, iv measured up to 24 hrs by LC-MS/MS analysis; assay type: ADME, organism-based; details: in vivo
[21] = Volume of distribution in Sprague-Dawley rat at 1 mg/kg, iv measured up to 24 hrs by LC-MS/MS analysis; assay type: ADME, organism-based; details: in vivo
[22] = Half life in Sprague-Dawley rat at 1 mg/kg, iv measured up to 24 hrs by LC-MS/MS analysis; assay type: ADME, organism-based; details: in vivo
[23] = AUC (0 to 24 hrs) in Sprague-Dawley rat at 1 mg/kg, iv measured up to 24 hrs by LC-MS/MS analysis; assay type: ADME, organism-based; set-up: dose 1 mg/kg, time < 24 hrs, route iv; details: in vivo
[24] = Cmax in Sprague-Dawley rat at 1 mg/kg, po measured up to 24 hrs by LC-MS/MS analysis; assay type: ADME, organism-based; set-up: time < 24 hrs, dose 1 mg/kg, route po; details: in vivo
[25] = Half life in Sprague-Dawley rat at 1 mg/kg, po measured up to 24 hrs by LC-MS/MS analysis; assay type: ADME, organism-based; details: in vivo
[26] = AUC (0 to 24 hrs) in Sprague-Dawley rat at 1 mg/kg, po measured up to 24 hrs by LC-MS/MS analysis; assay type: ADME, organism-based; set-up: dose 1 mg/kg, time < 24 hrs, route po; details: in vivo
[27] = Oral availability in Sprague-Dawley rat at 1 mg/kg measured up to 24 hrs by LC-MS/MS analysis; assay type: ADME, organism-based; details: in vivo
[28] = Tmax in Sprague-Dawley rat at 1 mg/kg, po measured up to 24 hrs by LC-MS/MS analysis; assay type: ADME, organism-based; details: in vivo

Chain of CYP3A4 (P08684 whole entry): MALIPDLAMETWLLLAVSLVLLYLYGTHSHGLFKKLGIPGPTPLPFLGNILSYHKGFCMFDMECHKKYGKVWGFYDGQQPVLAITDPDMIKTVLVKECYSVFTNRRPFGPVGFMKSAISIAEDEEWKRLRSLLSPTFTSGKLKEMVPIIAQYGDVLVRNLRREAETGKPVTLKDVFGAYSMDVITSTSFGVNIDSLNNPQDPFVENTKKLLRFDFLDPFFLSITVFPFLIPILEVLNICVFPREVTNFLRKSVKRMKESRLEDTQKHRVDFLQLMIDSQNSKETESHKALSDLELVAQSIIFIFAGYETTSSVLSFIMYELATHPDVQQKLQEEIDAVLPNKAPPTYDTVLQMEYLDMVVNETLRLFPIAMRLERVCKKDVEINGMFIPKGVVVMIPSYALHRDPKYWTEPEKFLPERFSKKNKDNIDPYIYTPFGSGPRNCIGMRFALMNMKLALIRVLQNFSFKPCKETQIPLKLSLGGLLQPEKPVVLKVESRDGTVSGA
Chain of Tyrosine-protein kinase JAK2 (O60674 whole entry): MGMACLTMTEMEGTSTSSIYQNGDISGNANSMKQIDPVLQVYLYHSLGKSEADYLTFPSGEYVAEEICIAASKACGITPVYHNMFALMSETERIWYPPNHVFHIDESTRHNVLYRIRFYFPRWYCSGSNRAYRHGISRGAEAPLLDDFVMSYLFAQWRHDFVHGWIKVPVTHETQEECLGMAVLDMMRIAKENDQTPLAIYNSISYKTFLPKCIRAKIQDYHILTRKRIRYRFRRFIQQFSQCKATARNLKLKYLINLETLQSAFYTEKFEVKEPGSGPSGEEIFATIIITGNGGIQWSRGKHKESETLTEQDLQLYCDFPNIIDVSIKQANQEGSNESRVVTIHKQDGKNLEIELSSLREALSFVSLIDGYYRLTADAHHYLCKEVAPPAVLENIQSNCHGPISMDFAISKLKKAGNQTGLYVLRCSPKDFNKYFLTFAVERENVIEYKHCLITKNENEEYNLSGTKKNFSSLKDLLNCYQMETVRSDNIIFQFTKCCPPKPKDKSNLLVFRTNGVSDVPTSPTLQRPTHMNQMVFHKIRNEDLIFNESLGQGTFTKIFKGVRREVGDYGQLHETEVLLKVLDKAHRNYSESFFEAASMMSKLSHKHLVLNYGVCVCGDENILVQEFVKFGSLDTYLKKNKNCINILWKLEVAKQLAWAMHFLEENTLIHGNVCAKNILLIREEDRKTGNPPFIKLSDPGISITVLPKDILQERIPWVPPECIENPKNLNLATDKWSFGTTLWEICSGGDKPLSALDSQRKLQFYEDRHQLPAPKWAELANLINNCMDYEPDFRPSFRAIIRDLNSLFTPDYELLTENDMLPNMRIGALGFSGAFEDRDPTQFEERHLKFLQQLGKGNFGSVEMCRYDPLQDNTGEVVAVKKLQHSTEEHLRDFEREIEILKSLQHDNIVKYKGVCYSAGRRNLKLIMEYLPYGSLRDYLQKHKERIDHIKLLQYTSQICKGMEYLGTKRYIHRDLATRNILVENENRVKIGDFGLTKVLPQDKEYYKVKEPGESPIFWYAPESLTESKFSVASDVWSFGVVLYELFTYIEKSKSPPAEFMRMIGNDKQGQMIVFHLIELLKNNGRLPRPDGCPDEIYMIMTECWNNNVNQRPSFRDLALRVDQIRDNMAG
Chain of Tyrosine-protein kinase JAK1 (P23458 whole entry): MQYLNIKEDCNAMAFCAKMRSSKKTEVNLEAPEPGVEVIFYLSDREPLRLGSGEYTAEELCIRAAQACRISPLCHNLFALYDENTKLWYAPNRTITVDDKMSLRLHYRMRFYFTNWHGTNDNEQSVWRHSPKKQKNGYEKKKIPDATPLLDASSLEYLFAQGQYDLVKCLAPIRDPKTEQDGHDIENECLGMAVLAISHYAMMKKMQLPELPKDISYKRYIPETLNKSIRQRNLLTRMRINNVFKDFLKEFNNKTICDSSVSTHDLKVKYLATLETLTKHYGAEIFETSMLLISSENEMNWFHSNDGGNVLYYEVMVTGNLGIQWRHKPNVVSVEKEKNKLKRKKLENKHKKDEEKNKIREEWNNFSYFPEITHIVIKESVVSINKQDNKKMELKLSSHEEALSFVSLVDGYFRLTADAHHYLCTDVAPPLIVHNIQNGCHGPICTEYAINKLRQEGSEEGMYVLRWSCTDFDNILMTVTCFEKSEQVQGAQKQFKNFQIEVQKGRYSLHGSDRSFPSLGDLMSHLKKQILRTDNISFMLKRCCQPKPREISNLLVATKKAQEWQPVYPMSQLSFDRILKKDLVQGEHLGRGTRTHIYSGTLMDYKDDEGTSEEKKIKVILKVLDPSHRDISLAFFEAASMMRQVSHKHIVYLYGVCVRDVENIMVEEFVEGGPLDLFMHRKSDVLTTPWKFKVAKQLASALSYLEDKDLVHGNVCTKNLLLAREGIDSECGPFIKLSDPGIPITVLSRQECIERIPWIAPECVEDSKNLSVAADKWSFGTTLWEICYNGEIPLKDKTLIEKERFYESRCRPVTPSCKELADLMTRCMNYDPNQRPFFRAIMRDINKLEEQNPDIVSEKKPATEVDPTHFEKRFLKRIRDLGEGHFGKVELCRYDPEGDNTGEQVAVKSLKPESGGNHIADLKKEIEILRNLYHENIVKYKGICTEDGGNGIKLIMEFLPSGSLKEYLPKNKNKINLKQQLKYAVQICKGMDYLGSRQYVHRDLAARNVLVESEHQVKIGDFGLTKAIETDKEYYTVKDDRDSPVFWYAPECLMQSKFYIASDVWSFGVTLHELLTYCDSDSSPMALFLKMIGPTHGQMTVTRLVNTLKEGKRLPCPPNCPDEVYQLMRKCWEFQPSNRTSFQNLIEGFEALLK
Chain of Tyrosine-protein kinase Lck (Homo sapiens) (P06239 2-509 limits assumed): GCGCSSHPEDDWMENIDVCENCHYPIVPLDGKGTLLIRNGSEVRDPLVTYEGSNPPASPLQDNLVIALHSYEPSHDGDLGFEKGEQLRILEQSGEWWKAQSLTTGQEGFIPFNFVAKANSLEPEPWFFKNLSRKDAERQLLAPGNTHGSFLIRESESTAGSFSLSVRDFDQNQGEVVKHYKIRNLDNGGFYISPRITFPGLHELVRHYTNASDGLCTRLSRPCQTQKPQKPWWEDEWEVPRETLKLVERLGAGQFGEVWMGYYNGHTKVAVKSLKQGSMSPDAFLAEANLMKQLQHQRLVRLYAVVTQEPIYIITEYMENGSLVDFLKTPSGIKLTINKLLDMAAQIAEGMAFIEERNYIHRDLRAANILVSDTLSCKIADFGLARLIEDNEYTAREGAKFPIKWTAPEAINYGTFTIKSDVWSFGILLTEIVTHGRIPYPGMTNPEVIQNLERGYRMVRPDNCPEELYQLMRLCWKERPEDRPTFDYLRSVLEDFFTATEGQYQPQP
Chain of Rho-associated protein kinase 1 (Homo sapiens) (Q13464 2-1354 limits assumed): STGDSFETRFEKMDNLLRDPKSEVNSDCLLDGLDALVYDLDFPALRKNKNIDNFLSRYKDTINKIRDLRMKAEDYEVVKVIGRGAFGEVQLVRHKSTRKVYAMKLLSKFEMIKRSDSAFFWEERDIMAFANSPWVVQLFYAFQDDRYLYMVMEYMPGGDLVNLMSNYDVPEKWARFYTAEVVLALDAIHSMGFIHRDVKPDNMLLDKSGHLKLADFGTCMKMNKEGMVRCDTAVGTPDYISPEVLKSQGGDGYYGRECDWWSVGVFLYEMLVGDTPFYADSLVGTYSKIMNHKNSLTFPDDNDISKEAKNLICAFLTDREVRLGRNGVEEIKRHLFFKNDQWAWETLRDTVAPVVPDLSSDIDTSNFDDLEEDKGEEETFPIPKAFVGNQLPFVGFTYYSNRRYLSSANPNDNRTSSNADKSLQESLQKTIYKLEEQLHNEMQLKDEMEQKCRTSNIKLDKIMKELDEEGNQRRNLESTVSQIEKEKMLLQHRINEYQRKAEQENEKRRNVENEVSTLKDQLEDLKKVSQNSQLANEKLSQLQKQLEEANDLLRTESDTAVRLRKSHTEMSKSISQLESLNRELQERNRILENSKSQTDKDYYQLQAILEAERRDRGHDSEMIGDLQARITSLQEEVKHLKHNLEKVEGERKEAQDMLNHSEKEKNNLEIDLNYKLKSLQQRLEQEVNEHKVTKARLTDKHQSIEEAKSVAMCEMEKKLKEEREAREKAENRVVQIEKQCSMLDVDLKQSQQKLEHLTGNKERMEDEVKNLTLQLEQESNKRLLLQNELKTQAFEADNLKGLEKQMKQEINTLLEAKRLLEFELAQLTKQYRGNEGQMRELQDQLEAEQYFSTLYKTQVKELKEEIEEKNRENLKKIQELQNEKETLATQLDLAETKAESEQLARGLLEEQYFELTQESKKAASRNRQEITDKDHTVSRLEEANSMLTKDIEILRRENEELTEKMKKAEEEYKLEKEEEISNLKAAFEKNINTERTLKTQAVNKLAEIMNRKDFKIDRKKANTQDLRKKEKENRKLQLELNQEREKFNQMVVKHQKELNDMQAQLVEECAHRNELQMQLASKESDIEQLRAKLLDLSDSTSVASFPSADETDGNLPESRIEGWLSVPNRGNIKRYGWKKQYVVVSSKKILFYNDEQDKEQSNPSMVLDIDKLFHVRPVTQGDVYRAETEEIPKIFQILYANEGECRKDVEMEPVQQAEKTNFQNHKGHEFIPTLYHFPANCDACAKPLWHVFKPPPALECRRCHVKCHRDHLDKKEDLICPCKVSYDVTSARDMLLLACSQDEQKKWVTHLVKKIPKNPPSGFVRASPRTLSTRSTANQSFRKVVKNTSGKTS
Chain of Dual specificity mitogen-activated protein kinase kinase 1 (Q02750 whole entry): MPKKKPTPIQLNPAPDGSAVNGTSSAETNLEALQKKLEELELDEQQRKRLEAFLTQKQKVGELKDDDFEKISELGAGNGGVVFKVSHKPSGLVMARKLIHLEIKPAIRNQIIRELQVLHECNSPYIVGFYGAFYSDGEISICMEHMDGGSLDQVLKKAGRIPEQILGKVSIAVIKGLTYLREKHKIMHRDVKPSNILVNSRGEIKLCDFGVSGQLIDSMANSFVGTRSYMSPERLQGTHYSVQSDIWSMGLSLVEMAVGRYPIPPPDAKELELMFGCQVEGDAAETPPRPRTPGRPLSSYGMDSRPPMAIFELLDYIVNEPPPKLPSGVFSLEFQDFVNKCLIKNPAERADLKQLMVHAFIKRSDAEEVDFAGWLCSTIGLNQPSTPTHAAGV

IC50 [1]	IC50 [2]	IC50 [3]	CLint scaled at 0.75 h, 0.2 µM (in vitro [4])	inhibition at 20 min, 5 µM (CYP3A4)	Papp at 2 h (in vitro [5])	Structure (SMILES)	further results
4.5 nM	1.6 nM	9 nM	195 mL/min/kg	29%	8.8 ×10⁻⁶ cm/s	C[C@@H]1CCN(c2ccc(C#N)cn2)C[C@@H]1n1c(=O)[nH]c2cnc3[nH]ccc3c21 (racemic)	
					2.5 ×10⁻⁶ cm/s	C[C@@H]1CCN(C(=O)CC#N)C[C@@H]1n1c(=O)n(C)c2cnc3[nH]ccc3c21 (racemic)	
						C[C@@H]1CCN(C(=O)CC#N)C[C@@H]1n1ccc2cnc3[nH]cc(C#N)c3c21	Ratio IC50 (Homo sapiens): 10; inhibition [6]: 88%; inhibition [7]: 51%; inhibition [8]: 67%; inhibition [9]: 80%; inhibition [10]: 77%; inhibition [11]: 54%; inhibition [12]: 91%; inhibition [13]: 59%; inhibition [14]: 92%; inhibition [15]: 59%; inhibition [16]: 90%; inhibition [17]: 78%; inhibition [18]: 98%; inhibition [19]: 75%
						C[C@@H]1CCN(C(=O)CC#N)C[C@@H]1n1ccc2cnc3[nH]ccc3c21	inhibition [6]: 55%; inhibition [18]: 67%; inhibition [19]: 75%
15 nM	7.1 nM	58 nM	44 mL/min/kg	18%	6.3 ×10⁻⁶ cm/s	C[C@@H]1CCN(C(=O)C(C)(C)C#N)C[C@@H]1n1c(=O)[nH]c2cnc3[nH]ccc3c21 (racemic)	
4.1 nM	0.38 nM		419 mL/min/kg	90%	13 ×10⁻⁶ cm/s	C[C@@H]1CCN(C(=O)CC#N)C[C@@H]1n1ccc2cnc3[nH]cc(C#N)c3c21 (racemic)	
11 nM	4.1 nM	7.5 nM			5.9 ×10⁻⁶ cm/s	C[C@@H]1CCN(C(=O)CC#N)C[C@@H]1n1ncc2cnc3[nH]ccc3c21 (racemic)	
390 nM	200 nM		89 mL/min/kg	88%	21 ×10⁻⁶ cm/s	C[C@H]1CCN(C(=O)CC#N)C[C@H]1n1ccc2cnc3[nH]ccc3c21	
12 nM	5.5 nM	19 nM		61%	1.3 ×10⁻⁶ cm/s	C[C@@H]1CCN(C(=O)N2CCOCC2)C[C@@H]1n1c(=O)[nH]c2cnc3[nH]ccc3c21 (racemic)	
3.5 nM	1.4 nM	3.2 nM		88%	< 0.8 ×10⁻⁶ cm/s	C[C@@H]1CCN(C(=O)Cn2cnnn2)C[C@@H]1n1c(=O)[nH]c2cnc3[nH]ccc3c21 (racemic)	
7 nM	2.1 nM	13 nM	249 mL/min/kg	11%	11 ×10⁻⁶ cm/s	C[C@@H]1CCN(C(=O)N2CCCCC2)C[C@@H]1n1c(=O)[nH]c2cnc3[nH]ccc3c21 (racemic)	
				90%	< 0.7 ×10⁻⁶ cm/s	C[C@@H]1CCN(C(=O)CC#N)C[C@@H]1n1c(=O)[nH]c2cnc3[nH]ccc3c21 (racemic)	clearance [20]: 113 mL/min/kg; Vd [21]: 3.62 L/kg; half-life [22]: 1.13 h; AUC(0-t) at 24 h [23]: 148 ng·h/mL; Cmax [24]: 2.98 ng/mL; half-life [25]: 11.8 h; AUC(0-t) at 24 h [26]: 11.8 ng·h/mL; bioavailability [27]: 11.2%; Tmax [28]: 0.25 h
2.2 nM	1.1 nM		47 mL/min/kg	91%	3.8 ×10⁻⁶ cm/s	C[C@@H]1CCN(C(=O)CC#N)C[C@@H]1n1cc(C#N)c2cnc3[nH]ccc3c21 (racemic)	
0.3 nM	0.17 nM	0.43 nM	154 mL/min/kg	44%	26 ×10⁻⁶ cm/s	Cc1cc2cnc3[nH]ccc3c2n1[C@H]1CN(C(=O)CC#N)CC[C@H]1C (racemic)	
4.9 nM	2.5 nM		309 mL/min/kg	62%	23 ×10⁻⁶ cm/s	Cc1c[nH]c2ncc3ccn([C@H]4CN(C(=O)CC#N)CC[C@H]4C)c3c12 (racemic)	

Structure (SMILES)	IC50 [1]	IC50 [2]	IC50 [3]	CLint scaled at 0.75 h, 0.2 µM (in vitro [4])	inhibition at 20 min, 5 µM (CYP3A4)	Papp at 2 h (in vitro [5])	further results
C[C@@H]1CCN(C(=O)CC#N)C[C@@H]1n1ccc2cnc3[nH]ccc3c21 (racemic)	1 nM	0.44 nM	1.1 nM	110 mL/min/kg	90%	13 ×10⁻⁶ cm/s	
